Data published in US20220193013A1, “Pharmaceutical Composition for Treatment or Prevention of Multiple Inflammatory Disorders” (priority 2020, published 2022).
Like-named read-outs stand apart in the source and are kept apart here.

Tests used:
[1] = tested on: leptin-deficient (ob/ob) mice; experiment: body weight study of denatonium acetate in leptin-deficient (ob/ob) mice fed with high-fat diet, 28 days; format: in vivo, mouse; details: vs vehicle
Experimental: This example describes an in vivo study of denatonium acetate on body weight in leptin-deficient (ob/ob) mice. Adult leptin-deficient mice (homozygote, ob/ob mice) fed with high-fat diet. There was a vehicle control group (15 mice) that were treated with distilled water by gavage BID. The DA group (15 mice) were treated with a DA solution at a dose of 23.1 mg/kg BID. Body weights and body weight changes were determined at days 1, 3, 7, 10, 14, 21, 24 and 28. Food intake was determined on days 3, 7, 10, 14, 17, 21, […] and 28. On day 28 blood samples were taken for cytokine analysis, HbA1c, HDL, LDL, insulin, and bile acids. Statistics were done by two-way repeated measures ANOVA followed by Tukey's multiple comparison post hoc test.

[2] = tested on: acute lung injury plus hyperthermia, CD-1 mice; format: in vivo; details: for tolerability: mouse, in vivo
Experimental: This example provides results of a second modified acute lung injury plus hyperthermia study to evaluate the effect of denatonium acetate. The same procedure was used as in Example 7. Starting three days before the induction of lung injury, groups of six CD-1 mice each were treated prophylactically with vehicle or 92.4 mg/kg denatonium acetate (DA) (administered by twice-daily (BID) oral gavage (PO)) or with 3 mg/kg DA (administered by once-daily (QD) intraperitoneal (IP) injection). On Day 0, lung injury was induced by intratracheal instillation with 50 μL of 1 mg/mL bacterial lipopolysaccharide (LPS), and hyperthermia was induced by placing the animals in a 39° C. incubator. On Day 1 (i.e., 24 hours after induction), animals were euthanized and bronchoalveolar lavage fluid (BALF) was collected. The BALF specimens were assessed for cytokine concentrations (using a multiplex bead-based assay), and protein levels, and neutrophil counts (by fluorescence-activated cell sorting (FACS)). Additionally, lungs were collected, fixed, stained with Masson's trichrome, and assessed histologically. Three days of repeat PO dosing with 92.4 mg/kg DA (BID) or IP dosing with 3 mg/kg DA (QD) was well-tolerated in female CD-1 mice. […] This inference is consistent with the observation that deaths were seen both with vehicle and test article dosing. No other adverse clinical observations were noted during 3 days of test article administration. […] IL-13, MIP-1β, MCSF, and MIG. […] Thus, BID PO treatment with 92.4 mg/kg DA or QD IP injection with 3 mg/kg DA provided significant attenuation of the accumulation of multiple cytokines in the lungs of this mouse model of acute lung injury, along with nominal activity in counteracting neutrophil infiltration and lung damage in these animals.

[3] = tested on: microbial populations in fecal samples; experiment: microbiome study in NASH mouse model (AMLN diet), 4 weeks; format: in vivo
Description: There were changes in the microbiome in a mice model using a high-fat diet after 4 weeks of treatment with and without administering DA orally. The high fat diet itself induced extensive changes in the microbial populations in all groups. Importantly though, there was a pronounced difference between the DA treatment group and the control group at week 4.
The effect of a small molecule oral TAS2R agonist (DA) was investigated on microbial populations in a nonalcoholic steatohepatitis (NASH) mouse model. Two groups of 4-week-old male C57BL/6 mice (20/group) were fed Amylin Liver NASH (AMLN) diet and received daily doses of ARD-101 (30 mg/mL in water) or vehicle (water) via intragastric gavage. DNA was isolated from fecal samples collected at week 0 and 4, and microbial ecology was evaluated using bTEFAP (bacterial tag-encoded FLX amplicon pyrosequencing). Operational taxonomic units were classified using BLAST against a curated NCBI database. Diversity within specific ecosystems and microbial community structures was analyzed with Qiime 2. Differences were determined by repeated measures ANOVA and post hoc pairwise comparisons using Tukey's test. Taxonomic classification data were evaluated with a dual hierarchal dendrogram.

[4] = 23.1 mg/kg BID, pre-dose to day 28, not statistically significant
[5] = IP 3 mg/kg QD, compared to vehicle
[6] = oral 92.4 mg/kg BID, compared to vehicle
[7] = 4-week DA treatment, genetic potential of microbiome
[8] = treatment at 4 weeks versus baseline and control
[9] = week 4, DA group versus vehicle group, AMLN diet

CC(=O)[O-].CC[N+](CC)(CC(=O)Nc1c(C)cccc1C)Cc1ccccc1 [DA, denatonium acetate]
average daily average individual food intake ([1]; 23.1 mg/kg BID gavage, 28 days): no difference
GM-CSF in blood ([1]; 23.1 mg/kg BID gavage, day 28): significant decreases
IFNγ in blood ([1]; 23.1 mg/kg BID gavage, day 28): significant decreases
IL-5 in blood ([1]; 23.1 mg/kg BID gavage, day 28): significant decreases
IL-10 in blood ([1]; 23.1 mg/kg BID gavage, day 28): significant decreases
IL-12 in blood ([1]; 23.1 mg/kg BID gavage, day 28): significant decreases
KC/CXCL1 in blood ([1]; 23.1 mg/kg BID gavage, day 28): significant decreases
M-CSF in blood ([1]; 23.1 mg/kg BID gavage, day 28): significant decreases
blood HDL level ([1]; 23.1 mg/kg BID gavage, day 28): statistically significant decrease
blood HbA1c levels ([1]; 23.1 mg/kg BID gavage, day 28): no statistically significant difference
blood LDL levels ([1]; 23.1 mg/kg BID gavage, day 28): no statistically significant difference
blood bile acid levels ([1]; 23.1 mg/kg BID gavage, day 28): no statistically significant difference
blood insulin levels ([1]; 23.1 mg/kg BID gavage, day 28): no statistically significant difference
blood total cholesterol levels (LDL plus HDL) ([1]; 23.1 mg/kg BID gavage, day 28): almost significant decrease
fasting blood glucose level ([1]; 23.1 mg/kg BID gavage, day 28): no statistically significant difference
body weight change ([1]; 23.1 mg/kg BID gavage, days 1-28, P=0.105): no significant main effect
body weight change at day 28 ([1]; 23.1 mg/kg BID gavage): no statistically significant difference
cumulative food consumption over 28 days ([1]; 23.1 mg/kg BID gavage): no statistically significant difference
change in granulocyte number [1, 4]: trend of increasing change
change in lymphocyte and white blood cell numbers and percentage [1, 4]: trend of increasing change
change in monocyte number and percentage [1, 4]: trend of increasing change
BALF neutrophil counts (by FACS assay) ([2]; IP 3 mg/kg QD): nominal decreases
BALF protein concentrations ([2]; IP 3 mg/kg QD): nominal (but nonsignificant) changes
severity of lung pathology (by histological scoring) ([2]; IP 3 mg/kg QD): nominal decreases in the severity
BALF concentration of G-CSF [2, 5]: significant decreases
BALF concentration of IL2 [2, 5]: significant decreases
BALF concentration of IL-3 [2, 5]: significant decreases
BALF concentration of IL-4 [2, 5]: significant decreases
BALF concentration of IL-13 [2, 5]: significant decreases
BALF concentration of IP-10 [2, 5]: significant decreases
BALF concentration of M-CSF [2, 5]: significant decreases
BALF concentration of MCP-1 [2, 5]: significant decreases
BALF concentration of MIG [2, 5]: significant decreases
BALF concentration of eotaxin [2, 5]: significant decreases
tolerability ([2]; ip, 3 mg/kg): well-tolerated
tolerability ([2]; po, 92.4 mg/kg): well-tolerated
BALF neutrophil counts (by FACS assay) ([2]; oral 92.4 mg/kg BID): nominal decreases
BALF protein concentrations ([2]; oral 92.4 mg/kg BID): nominal (but nonsignificant) changes
severity of lung pathology (by histological scoring) ([2]; oral 92.4 mg/kg BID): nominal decreases in the severity
BALF concentration of IL-2 [2, 6]: significant decreases
BALF concentration of IL-3 [2, 6]: significant decreases
BALF concentration of IL-10 [2, 6]: significant decreases
BALF concentration of IL-13 [2, 6]: significant decreases
BALF concentration of MCSF [2, 6]: significant decreases
BALF concentration of MIG [2, 6]: significant decreases
BALF concentration of MIP-1β [2, 6]: significant decreases
arginine and ornithine metabolism [3, 7]: significantly decreased signaling
pathways for biosynthesis of unsaturated fatty acids [3, 7]: significant enrichment
pathways for glycolysis and gluconeogenesis [3, 7]: significant enrichment
pathways for lysine degradation [3, 7]: significant enrichment
pathways for metabolism of arachidonic acid [3, 7]: significant enrichment
pathways for metabolism of cofactors and vitamins [3, 7]: significant enrichment
phosphatidylinositol signaling [3, 7]: significant enrichment
SCFAs in feces ([3]; AMLN diet, DA treatment): mitigated the diet-induced decrease
diversity within ecosystems and microbial communities ([3]; DA versus vehicle group at week 4, p<0.05): significantly less diversity
genus: Lachnoclostridium, Barnesiella, Clostridium, Oscillospira, Dorea, candidatus soleaferrea, Dehalobacterium, Oscillibacter, Flavonifractor [3, 8]: Significantly Decreased
genus: Parabacteroides, Escherichia, Erysipelatoclostridium, Peptoclostridium, Sutterella, Shigella, Brenneria [3, 8]: Significantly Increased
Cyanobacteria (phylum level) [3, 9]: significant increases
Deferribacteres (phylum level) [3, 9]: significant decreases
Firmicutes (phylum level) [3, 9]: significant decreases
Proteobacteria (phylum level) [3, 9]: significant increases
Spirochetes (phylum level) [3, 9]: significant decreases
Verrucomicrobia (phylum level) [3, 9]: significant increases
Bacteroidetes (phylum level) ([3]; week 4, not marked significant): decreased
